Patent publication US20100279863A1, “HERBICIDAL COMPOUNDS BASED ON N-AZINYL-N'-PYRIDYLSULFONYLUREAS” (Bayer CropScience AG, priority 2009, published 2010)

Key:
Assay type in all cases: in vivo
[1] = tested on: Slender meadow foxtail (Alopecurus myosuroides); experiment: Pre-emergence herbicidal activity, ALOMY; conditions: 80 g/ha, scored visually after approximately 3 weeks, 100% = plants have died
Text: (§1) Seeds of monocotyledonous or dicotyledonous weed plants or crop plants are placed in sandy loam in wood fiber pots and covered with soil. The compounds according to the invention, which are formulated as wettable powders (WP) are then applied to the surface of the soil cover in the form of an aqueous suspension or emulsion with a water application rate of 600 I/ha (converted), with addition of 0.2% wetter. After the treatment, the pots are placed in the greenhouse and maintained under good growth conditions for the test plants. After approximately 3 weeks, the activity of the preparation is scored visually in comparison with untreated controls (herbicidal activity in percent (%): 100% activity=plants have died, 0% activity=like control plants). In the table, the individual crops are abbreviated as follows: • ALOMY: Slender meadow foxtail (Alopecurus myosuroides) • AMARE: Redroot pigweed (Amaranthus retroflexus) • CHEAL: Lambs quarters (Chenopodium album) • DIGSA: Hairy crab grass (Digitaria sanguinalis) • ECHCG: Barnyard grass (Echinochloa crus-galls) • LOLMU: Italian rye grass (Lolium multiflorum) • MATIN: Scentless camomile (Matricaria inodora) • PHBPU: Purple morning glory (Pharbitis/Ipomoea purpurea) • SETVI: Green bristlegrass (Setaria viridis) • SINAL: White mustard (Sinapis alba) • STEME: Chickweed (Stellaria media) • VIOTR: Wild pansy (Viola tricolor)

[2] = tested on: Redroot pigweed (Amaranthus retroflexus); experiment: Pre-emergence herbicidal activity, AMARE; conditions: 80 g/ha, scored visually after approximately 3 weeks, 100% = plants have died
Text: as §1

[3] = tested on: Lambs quarters (Chenopodium album); experiment: Pre-emergence herbicidal activity, CHEAL; conditions: 80 g/ha, scored visually after approximately 3 weeks, 100% = plants have died
Text: as §1

[4] = tested on: Hairy crab grass (Digitaria sanguinalis); experiment: Pre-emergence herbicidal activity, DIGSA; conditions: 80 g/ha, scored visually after approximately 3 weeks, 100% = plants have died
Text: as §1

[5] = tested on: Barnyard grass (Echinochloa crus-galls); experiment: Pre-emergence herbicidal activity, ECHCG; conditions: 80 g/ha, scored visually after approximately 3 weeks, 100% = plants have died
Text: as §1

[6] = tested on: Italian rye grass (Lolium multiflorum); experiment: Pre-emergence herbicidal activity, LOLMU; conditions: 80 g/ha, scored visually after approximately 3 weeks, 100% = plants have died
Text: as §1

[7] = tested on: Scentless camomile (Matricaria inodora); experiment: Pre-emergence herbicidal activity, MATIN; conditions: 80 g/ha, scored visually after approximately 3 weeks, 100% = plants have died
Text: as §1

[8] = tested on: Purple morning glory (Pharbitis/Ipomoea purpurea); experiment: Pre-emergence herbicidal activity, PHBPU; conditions: 80 g/ha, scored visually after approximately 3 weeks, 100% = plants have died
Text: as §1

[9] = tested on: Green bristlegrass (Setaria viridis); experiment: Pre-emergence herbicidal activity, SETVI; conditions: 80 g/ha, scored visually after approximately 3 weeks, 100% = plants have died
Text: as §1

[10] = tested on: White mustard (Sinapis alba); experiment: Pre-emergence herbicidal activity, SINAL; conditions: 80 g/ha, scored visually after approximately 3 weeks, 100% = plants have died
Text: as §1

[11] = tested on: Chickweed (Stellaria media); experiment: Pre-emergence herbicidal activity, STEME; conditions: 80 g/ha, scored visually after approximately 3 weeks, 100% = plants have died
Text: as §1

[12] = tested on: Wild pansy (Viola tricolor); experiment: Pre-emergence herbicidal activity, VIOTR; conditions: 80 g/ha, scored visually after approximately 3 weeks, 100% = plants have died
Text: as §1

[13] = tested on: Velvetleaf (Abutilon theophrasti); experiment: Post-emergence herbicidal activity, ABUTH; conditions: one-leaf stage, 80 g/ha, scored visually after approximately 3 weeks, 100% = plants have died
Description: (§2) Seeds of monocotyledonous or dicotyledonous weed plants or crop plants are placed in sandy loam in wood fiber pots, covered with soil and grown in the greenhouse under good growth conditions. 2 to 3 weeks after sowing, the test plants are treated in the one-leaf stage. The compounds according to the invention, which are formulated as wettable powders (WP), are then sprayed onto the green plant parts in the form of an aqueous suspension or emulsion with a water application rate of 600 l/ha (converted) with addition of 0.2% of wetter. After the test plants have been left to stand in the greenhouse for approximately 3 weeks under optimal growth conditions, the activity of the preparation is scored visually in comparison with untreated controls (herbicidal activity in percent (%): 100% activity=plants have died, 0% activity=like control plants). In the table, the individual crops are abbreviated as follows: • ABUTH: Velvetleaf (Abutilon theophrasti) • ALOMY: Slender meadow foxtail (Alopecurus myosuroides) • AMARE: Redroot pigweed (Amaranthus retroflexus) • CHEAL: Lambs quarters (Chenopodium album) • ECHCG: Barnyard grass (Echinochloa crus-galls) • LOLMU: Italian rye grass (Lolium multiflorum) • MATIN: Scentless camomile (Matricaria inodora) • PHBPU: Purple morning glory (Pharbitis/Ipomoea purpurea) • POLCO: Black bindweed (Polygonum convolvulus) • SETVI: Green bristlegrass (Setaria viridis) • STEME: Chickweed (Stellaria media) • VIOTR: Wild pansy (Viola tricolor) • XANST: Rough cocklebear (Xanthium strumarium)

[14] = tested on: Slender meadow foxtail (Alopecurus myosuroides); experiment: Post-emergence herbicidal activity, ALOMY; conditions: one-leaf stage, 80 g/ha, scored visually after approximately 3 weeks, 100% = plants have died
Description: as §2

[15] = tested on: Redroot pigweed (Amaranthus retroflexus); experiment: Post-emergence herbicidal activity, AMARE; conditions: one-leaf stage, 80 g/ha, scored visually after approximately 3 weeks, 100% = plants have died
Description: as §2

[16] = tested on: Lambs quarters (Chenopodium album); experiment: Post-emergence herbicidal activity, CHEAL; conditions: one-leaf stage, 80 g/ha, scored visually after approximately 3 weeks, 100% = plants have died
Description: as §2

[17] = tested on: Barnyard grass (Echinochloa crus-galls); experiment: Post-emergence herbicidal activity, ECHCG; conditions: one-leaf stage, 80 g/ha, scored visually after approximately 3 weeks, 100% = plants have died
Description: as §2

[18] = tested on: Italian rye grass (Lolium multiflorum); experiment: Post-emergence herbicidal activity, LOLMU; conditions: one-leaf stage, 80 g/ha, scored visually after approximately 3 weeks, 100% = plants have died
Description: as §2

[19] = tested on: Scentless camomile (Matricaria inodora); experiment: Post-emergence herbicidal activity, MATIN; conditions: one-leaf stage, 80 g/ha, scored visually after approximately 3 weeks, 100% = plants have died
Description: as §2

[20] = tested on: Purple morning glory (Pharbitis/Ipomoea purpurea); experiment: Post-emergence herbicidal activity, PHBPU; conditions: one-leaf stage, 80 g/ha, scored visually after approximately 3 weeks, 100% = plants have died
Description: as §2

[21] = tested on: Black bindweed (Polygonum convolvulus); experiment: Post-emergence herbicidal activity, POLCO; conditions: one-leaf stage, 80 g/ha, scored visually after approximately 3 weeks, 100% = plants have died
Description: as §2

[22] = tested on: Green bristlegrass (Setaria viridis); experiment: Post-emergence herbicidal activity, SETVI; conditions: one-leaf stage, 80 g/ha, scored visually after approximately 3 weeks, 100% = plants have died
Description: as §2

[23] = tested on: Chickweed (Stellaria media); experiment: Post-emergence herbicidal activity, STEME; conditions: one-leaf stage, 80 g/ha, scored visually after approximately 3 weeks, 100% = plants have died
Description: as §2

[24] = tested on: Wild pansy (Viola tricolor); experiment: Post-emergence herbicidal activity, VIOTR; conditions: one-leaf stage, 80 g/ha, scored visually after approximately 3 weeks, 100% = plants have died
Description: as §2

[25] = tested on: Rough cocklebear (Xanthium strumarium); experiment: Post-emergence herbicidal activity, XANST; conditions: one-leaf stage, 80 g/ha, scored visually after approximately 3 weeks, 100% = plants have died
Description: as §2

| Compound | herbicidal activity in percent, ALOMY [1] [%] | herbicidal activity in percent, AMARE [2] [%] | herbicidal activity in percent, ECHCG [5] [%] | herbicidal activity in percent, LOLMU [6] [%] | herbicidal activity in percent, SETVI [9] [%] | herbicidal activity in percent, STEME [11] [%] | herbicidal activity in percent, VIOTR [12] [%] | herbicidal activity in percent, ABUTH [13] [%] | herbicidal activity in percent, ALOMY [14] [%] | herbicidal activity in percent, AMARE [15] [%] | herbicidal activity in percent, CHEAL [16] [%] | herbicidal activity in percent, ECHCG [17] [%] | herbicidal activity in percent, LOLMU [18] [%] | herbicidal activity in percent, MATIN [19] [%] | herbicidal activity in percent, PHBPU [20] [%] | herbicidal activity in percent, POLCO [21] [%] | herbicidal activity in percent, SETVI [22] [%] | herbicidal activity in percent, STEME [23] [%] | herbicidal activity in percent, VIOTR [24] [%] | herbicidal activity in percent, XANST [25] [%] | other results |
| --- | --- | --- | --- | --- | --- | --- | --- | --- | --- | --- | --- | --- | --- | --- | --- | --- | --- | --- | --- | --- | --- |
| COc1cc(OC)nc(NC(=O)NS(=O)(=O)c2cnccc2C2=NOCCO2)n1 [Ia-2, 4-(5,6-Dihydro-1,4,2-dioxazin-3-yl)-N-[(4,6-dimethoxypyrimidin-2-yl)carbamoyl]pyridine-3-sulfonamide] | 90 | 90 | 90 | 90 | 100 | 90 | 90 | 90 | 90 | 100 | 80 | 90 | 95 | 90 | 90 | 90 | 95 | 95 | 90 | 100 | herbicidal activity in percent, CHEAL [3]: 100%; herbicidal activity in percent, DIGSA [4]: 80%; herbicidal activity in percent, MATIN [7]: 90%; herbicidal activity in percent, PHBPU [8]: 80%; herbicidal activity in percent, SINAL [10]: 100% |
| CN(C)c1nc(NC(=O)NS(=O)(=O)c2cnccc2C2=NOCCO2)nc(OCC(F)(F)F)n1 [Ia-8] | – | – | – | – | – | – | – | – | – | 80 | – | 80 | 80 | – | – | – | – | 80 | – | – | – |
| Cc1cc(C)nc(NC(=O)NS(=O)(=O)c2cnccc2C2=NOCCO2)n1 [Ia-3] | 90 | 85 | 80 | 85 | 90 | 80 | 80 | 90 | 90 | 95 | 80 | 95 | 85 | 100 | 100 | 80 | 80 | 85 | 80 | 90 | herbicidal activity in percent, CHEAL [3]: 90%; herbicidal activity in percent, MATIN [7]: 90%; herbicidal activity in percent, PHBPU [8]: 90%; herbicidal activity in percent, SINAL [10]: 90% |
| COc1cc(C)nc(NC(=O)NS(=O)(=O)c2cnccc2C2=NOCCO2)n1 [Ia-9] | 90 | 90 | 80 | 90 | 90 | 90 | 90 | 90 | 90 | 100 | 90 | 90 | 90 | 100 | 100 | 90 | 80 | 90 | 90 | 100 | herbicidal activity in percent, CHEAL [3]: 90%; herbicidal activity in percent, DIGSA [4]: 90%; herbicidal activity in percent, MATIN [7]: 90%; herbicidal activity in percent, PHBPU [8]: 90% |
| COc1cc(OC)nc(NC(=O)NS(=O)(=O)c2cccnc2C2=NOCCO2)n1 [Ic-1] | 90 | 90 | 90 | 85 | 85 | 90 | 80 | 80 | 80 | 95 | 80 | 90 | 85 | 90 | 90 | 90 | 85 | 90 | 90 | 90 | herbicidal activity in percent, DIGSA [4]: 80%; herbicidal activity in percent, SINAL [10]: 90% |
